The values that follow come from patent US20170152258A9, “Substituted Pyridopyrazines as Syk Inhibitors” (HUTCHISON MEDIPHARMA LIMITED, priority 2012, published 2017).

SMILES strings stand for the structures.

The test system of one experiment is RBL-2H3 cells. Briefly: IgE-induced Beta-hexosaminidase secretion in RBL-2H3 cells. Format: cell-based. The following applies: Rattus norvegicus, RBL-2H3, IgE-induced Beta-hexosaminidase secretion, DNP-BSA stimulation. As to the method: For the determination of IgE-induced Beta-hexosaminidase secretion, RBL-2H3 cells (SIBS) are seeded in 96 well plates at 4×10^4 cells per well and incubated in MEM media with 15% FBS and Glutamine ([…]) for 4 hours and sensitized with 0.5 ug/ml of SPE-7 overnight. Cells are washed 3 times with Tyrode's buffer and incubated in the presence or absence of various concentrations of the testing compound for 20 min at 37° C., 5% CO2. Cells are stimulated by adding 10 uL of DNP-BSA solution (150 ng/mL) to each well and incubating for 45 minutes at 37° C., 5% CO2. Then, 45 μL of the supernatant is taken and incubated with 100 μL of 1 mM 4-Nitrophenyl N-acetyl-β-D-glucosaminide (Sigma, Cat. No. N9376), which is diluted in 0.05 M citrate buffer (pH 4.5), for 1.5 hr at 37° C. The reactions are quenched by adding 185 μL of 0.05 M sodium carbonate buffer (pH 10.0). Plates are read at 405 nm on Multiskan (MK 3).

Another experiment deals with Syk kinase (Homo sapiens, UniProt P43405). Briefly: SYK Enzymatic Assay (Z-LYTE Tyr 2 peptide). The conditions noted are these: 8 concentrations 1 μM down to 0.0003 μM. Format: biochemical. As to the method: Syk kinase assay are performed in vitro using Kit-Tyr 2 Peptide (Invitrogen, Cat. No. PV3191) and in a 384-well assay plate. […] The 384-well assay plate (Corning, Cat. No. 3575) is mixed and incubated at room temperature for 1 hour. 10 μL of the Development Solution (prepared by diluting Development Reagent A (Cat. No. PV3297) to 1/32 with Development Buffer (Cat. No. PV3127)) is then added to each well, mixed and incubated at room temperature for another 1 hour. The reactions are then stopped by adding 10 μL of the Stop Reagent (Invitrogen, Cat. No. PV3094), and the plate is read with Wallac 1420 VICTOR^3 Multilabel Counter (PerkinElmer™) at 445 nm and 520 nm fluorescence. All compounds are tested at 8 concentrations (1 μM down to 0.0003 μM) using a 1:3 serial dilution scheme.

As usually defined, the IC50 is the concentration that gives 50% inhibition. High values mean weaker potency in that assay, low ones greater potency in that assay. For the compound `NC(=O)N1CCO[C@H](COc2nc(-c3ccc(C4(O)CCC4)cc3)cc3nccnc23)C1` [Compound 311], the results for the IC50 with RBL-2H3 cells and against Syk kinase were 0.62 µM and 0.035 µM, respectively.

`CNC(=O)N1CCO[C@H](COc2nc(-c3ccc(OC)c(OC)c3)cc3nccnc23)C1` [Compound 143]: the IC50 is 0.244 µM in the experiment on RBL-2H3 cells and 0.08 µM against Syk kinase.

In the case of `CC(C)S(=O)(=O)N1CCO[C@H](COc2nc(-c3ccc(N(C)C)cc3)cc3nccnc23)C1` [Compound 89], the values for the IC50 in the experiment on RBL-2H3 cells and on Syk kinase were 0.207 µM and 0.096 µM, respectively.

In the case of `CS(=O)(=O)N1CCO[C@H](COc2nc(-c3ccc4c(c3)OCO4)cc3nccnc23)C1` [Compound 110], the IC50 was determined as 0.163 µM in the experiment on RBL-2H3 cells and 0.211 µM against Syk kinase.

In the case of `CNC(=O)N1CCO[C@H](COc2nc(-c3ccc(N(C)C)c(Cl)c3)cc3nccnc23)C1` [Compound 166], the IC50 came to 0.071 µM with RBL-2H3 cells and 0.052 µM against Syk kinase.

Consider `CC(=O)N(C)Cc1ccc(-c2cc3nccnc3c(OC[C@@H]3CN(S(C)(=O)=O)CCO3)n2)cc1` [Compound 259], for which the IC50 with RBL-2H3 cells is 0.297 µM; on Syk kinase, 0.054 µM.

As for `Cc1cc(-c2cc3nccnc3c(O[C@@H]3CCOC3)n2)ccc1N(C)C` [Compound 155], the IC50 worked out at 0.029 µM in the experiment with RBL-2H3 cells and 0.032 µM against Syk kinase.

Consider `CC(Oc1nc(-c2ccc(N(C)C)cc2)cc2nccnc12)C1CN(S(N)(=O)=O)CCO1` (centres unmarked) [Compound 246], for which the IC50 is 0.044 µM in the experiment with RBL-2H3 cells and 0.095 µM against Syk kinase.

With `c1cnc2c(O[C@@H]3CCOC3)nc(-c3ccc(C4CCOCC4)cc3)cc2n1` [Compound 217], the IC50 was 0.068 µM in the experiment on RBL-2H3 cells and 0.045 µM on Syk kinase.

Take `C[C@H](O)C(=O)N1CCO[C@H](COc2nc(-c3ccc(N(C)C)cc3)cc3nccnc23)C1` [Compound 197]: the figures for the IC50 in the experiment on RBL-2H3 cells and against Syk kinase were 0.081 µM and 0.085 µM, respectively.

For `CS(=O)(=O)N1CCO[C@H](COc2nc(-c3ccc(C4(C#N)CCC4)cc3)cc3nccnc23)C1` [Compound 282], the IC50 amounted to 0.092 µM with RBL-2H3 cells and 0.026 µM against Syk kinase.

Regarding `Fc1cc(-c2cc3nccnc3c(O[C@@H]3CCOC3)n2)ccc1N1CCOCC1` [Compound 193], the concentration for half-maximal inhibition (IC50) with RBL-2H3 cells was 0.143 µM; at Syk kinase it was 0.066 µM.

Regarding `CC1(C)OCCc2cc(-c3cc4nccnc4c(OC[C@@H]4CN(S(C)(=O)=O)CCO4)n3)ccc21` [Compound 302], the IC50 in the experiment on RBL-2H3 cells is 0.03 µM; against Syk kinase it was 0.009 µM.

For the compound `CN(C)c1ccc(-c2cc3nccnc3c(OC[C@@H]3CN(C(=O)Cc4c[nH]cn4)CCO3)n2)cc1` [Compound 84], the IC50 was 0.316 µM with RBL-2H3 cells and 0.081 µM against Syk kinase.

Turning to `O=C1C[C@H](COc2nc(-c3ccc(N4CCOCC4)cc3)cc3nccnc23)CN1` [Compound 223], the values for the IC50 in the experiment on RBL-2H3 cells and against Syk kinase were 0.121 µM and 0.057 µM, respectively.

Turning to `Cc1ccc(-c2cc3nccnc3c(OC[C@@H]3CN(S(C)(=O)=O)CCO3)n2)cc1` [Compound 41], inhibition against Syk kinase was half-maximal at 0.138 µM (IC50).

Take `CS(=O)(=O)N1CCO[C@H](COc2nc(-c3cnn(C4CCOCC4)c3)cc3nccnc23)C1` [Compound 42]: inhibition against Syk kinase was half-maximal at 0.139 µM (IC50).

In turn, `CS(=O)(=O)N1CCO[C@H](COc2nc(-c3ccc(F)cc3)cc3nccnc23)C1` [Compound 44] came in with an IC50 on Syk kinase of 0.324 µM.

Regarding `CS(=O)(=O)N1CCO[C@H](COc2nc(-c3ccc(C#N)cc3)cc3nccnc23)C1` [Compound 45], the IC50 against Syk kinase came out at 0.846 µM.

Compound `CC(=O)N1CCO[C@H](COc2nc(-c3ccc(C(O)C(C)C)cc3)cc3nccnc23)C1` (some centres unmarked) [Compound 286] had an IC50 on Syk kinase of 0.403 µM.

`CN(C)c1ccc(-c2cc3nccnc3c(OC[C@@H]3CN(C(=O)CCn4ccnc4)CCO3)n2)cc1` [Compound 85] displayed an IC50 at Syk kinase of 0.283 µM.

`CC(C)(O)c1ccc(-c2cc3nccnc3c(OCC3OCCNC3=O)n2)cc1` (centres unmarked) [Compound 319] displayed a half-inhibitory concentration (IC50) against Syk kinase of 0.208 µM.

As to `CC(=O)N1CCO[C@H](COc2nc(-c3ccc(C4(C#N)CC4)cc3)cc3nccnc23)C1` [Compound 276], on Syk kinase, it took 0.112 µM to reach half-maximal inhibition (IC50).

The compound `CC(=O)N1CCO[C@H](COc2nc(-c3ccc4c(c3)CC(=O)N4C)cc3nccnc23)C1` [Compound 171] gave an IC50 at Syk kinase of 0.458 µM.

With `NC(=O)c1ccc(Oc2nc(-c3ccc(N4CCOCC4)cc3)cc3nccnc23)cc1` [Compound 3, 4-(7-(4-morpholinophenyl)pyrido[4,3-b]pyrazin-5-yloxy)benzamide], at Syk kinase, inhibition was half-maximal at 0.459 µM (IC50).

In turn, `CN(C)c1ccc(-c2cc3nccnc3c(OC[C@@H]3CN(C(=O)Cc4cccnc4)CCO3)n2)cc1` [Compound 80] yielded an IC50 on Syk kinase of 0.107 µM.

At Syk kinase, `CC(=O)N1CC(c2ccc(-c3cc4nccnc4c(OC[C@@H]4CN(C(C)=O)CCO4)n3)cc2)C1` [Compound 295, (S)-1-(2-(((7-(4-(1-acetylazetidin-3-yl)phenyl)pyrido[3,4-b]pyrazin-5-yl)oxy)methyl)morpholino)ethanone] had an IC50 of 0.128 µM.

For the compound `CNS(=O)(=O)CCN1CCO[C@H](COc2nc(-c3ccc(N(C)C)cc3)cc3nccnc23)C1` [Compound 128], it took 0.477 µM to reach half-maximal inhibition against Syk kinase (IC50).

The compound `CC(C)(N)c1ccc(-c2cc3nccnc3c(OC[C@@H]3CN(S(C)(=O)=O)CCO3)n2)cc1` [Compound 244] had an IC50 against Syk kinase of 0.136 µM.

Compound `CS(=O)(=O)N1CCO[C@H](COc2nc(-c3ccc(C4CCNCC4)cc3)cc3nccnc23)C1` [Compound 10, (S)-4-(methylsulfonyl)-2-(((7-(4-(piperidin-4-yl)phenyl)pyrido[3,4-b]pyrazin-5-yl)oxy)methyl)morpholine] came in with an IC50 against Syk kinase of 0.018 µM.

Compound `CS(=O)(=O)N1CCC(c2ccc(-c3cc4nccnc4c(OCC4CCCO4)n3)cc2)CC1` (centres unmarked) [Compound 170] gave an IC50 against Syk kinase of 0.182 µM.

In the case of `CN(C)c1ccc(-c2cc3nccnc3c(O[C@H]3CCOC3)n2)cc1` [Compound 106], the IC50 against Syk kinase turned out to be 0.13 µM.

`CC(C)C(O)c1ccc(-c2cc3nccnc3c(OC[C@@H]3CN(S(C)(=O)=O)CCO3)n2)cc1` (some centres unmarked) [Compound 287]: at Syk kinase, the IC50 was found to be 0.105 µM.

`CC(C)c1ccc(-c2cc3nccnc3c(OC[C@@H]3CN(S(N)(=O)=O)CCO3)n2)cc1` [Compound 187] returned an IC50 on Syk kinase of 0.109 µM.

Compound `CN(C)CCOc1cccc(-c2cc3nccnc3c(OC[C@@H]3CN(S(C)(=O)=O)CCO3)n2)c1` [Compound 130] displayed an IC50 on Syk kinase of 0.454 µM.

Regarding `CC(Oc1nc(-c2ccc(N(C)C)cc2)cc2nccnc12)C1CN(S(C)(=O)=O)CCO1` (centres unmarked) [Compound 236], the IC50 against Syk kinase came to 0.109 µM.

The compound `CC(=O)N1CCO[C@H](COc2nc(-c3ccc(C(C)N(C)C)cc3)cc3nccnc23)C1` (some centres unmarked) [Compound 271] showed an IC50 at Syk kinase of 0.741 µM.

In turn, `CN1CCN(c2ccc(-c3cc4nccnc4c(OCC4CCC(=O)NC4)n3)cc2)CC1` (centres unmarked) [Compound 5] returned an IC50 on Syk kinase of 0.172 µM.

`CN(C)c1ccc(-c2cc3nccnc3c(OC[C@@H]3CN(S(=O)(=O)Cc4cccc(F)c4)CCO3)n2)cc1` [Compound 93] gave an IC50 at Syk kinase of 0.808 µM.

As for `CNC(=O)N1CCO[C@H](COc2nc(-c3ccc4[nH]ncc4c3)cc3nccnc23)C1` [Compound 204], on Syk kinase, the IC50 is 0.126 µM.

`NC(=O)N1CCO[C@H](COc2nc(-c3ccc4[nH]ncc4c3)cc3nccnc23)C1` [Cmpd 242]: half-maximal inhibition against Syk kinase (IC50) was put at 0.111 µM.

Compound `CC(=O)N1CCO[C@H](COc2nc(-c3cnc(N(C)C)c(C)c3)cc3nccnc23)C1` [Compound 174] gave an IC50 against Syk kinase of 0.816 µM.

Compound `Clc1cc(-c2cc3nccnc3c(O[C@@H]3CCOC3)n2)ccc1N1CCOCC1` [Compound 194] came in with an IC50 against Syk kinase of 0.136 µM.

Compound `c1cnc2c(O[C@@H]3CCNC3)nc(-c3ccc(N4CCOCC4)cc3)cc2n1` [Compound 243] showed an IC50 at Syk kinase of 0.3 µM.
